According to patent publication US9315475B2 (MERCK SHARP & DOHME CORP., priority 2011, dated 2016):

Tests used:
wildtype HIV-1 protease = molecular target: T1, wildtype HIV-1 protease (Human immunodeficiency virus type 1 group M subtype B, UniProt P04585); assay: Assay for inhibition of microbial expressed HIV protease (Pepcleav); assay type: biochemical; conditions: wild type HIV-1 protease expressed in E. coli, peptide substrate, pH 5.5; mean of at least two independent experiments; read-out: Pepcleav
T1 construct: the wildtype HIV-1 protease (which was expressed in Escherichia coli); made in house; host or cells: Escherichia coli
Procedure, shortened: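 E. coli-expressed wild-type HIV-1 protease (20 pM) preincubated 30 min at room temperature with inhibitor in pH 5.5 sodium acetate/NaCl/BSA buffer, then 400 μM Val-Ser-Gln-Asn-(βnaphthyl)Ala-Pro-Ile-Val added for 1 h at 30 °C. Quenched with formic acid; product quantified by LC-MS/MS peak area, indinavir internal standard.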

HIV-1 (H9IIIB strain) = assay: Antiviral acute infection assay in cell culture (Spread); assay type: cell-based; conditions: Human immunodeficiency virus 1, T-lymphoid, HIV-1 H9IIIB infection of MT-4 human T-lymphoid cells in 10% FBS; mean of at least two independent experiments
Description: Antiviral Assays in Cell Culture (“Spread”)
Acute Infection Assay (“Spread”) data were generated using HIV-1 (H9IIIB strain) infection of MT-4 human T-lymphoid cells in 10% FBS, and according to the methods disclosed by J. P. Vacca et al, “L-735,524: An orally bioavailable human immunodeficiency virus type 1 protease inhibitor,” Proc. Natl. Acad. Sci. USA, Vol. 91, pp. 4096-4100 (April 1994).

| SMILES | IC50 (wildtype HIV-1 protease) [nM] | EC50 (HIV-1 (H9IIIB strain)) [nM] |
| --- | --- | --- |
| COC(=O)N[C@H](C(=O)Nc1cncc(F)c1CC[C@@H]1CNC(COC(=O)NCC(F)(F)F)CO1)[C@@H](c1ccc(F)cc1)c1cc(F)cc(F)c1 (stereo in doubt) [Example 91, (2S,3S)-2-(Methoxycarbonylamino)-3-(4-fluorophenyl)-3-(3,5-difluorophenyl)-N-(5-fluoro-4-(2-((2R,5R)-5-(2,2,2-trifluoroethylaminocarbonyloxymethyl)morpholine-2-yl)ethyl)pyridin-3-yl)propanamide] | 3 | 16 |
| N[C@H](C(=O)Nc1cncc(F)c1CC[C@@H]1CNC(COC(=O)NCC(F)(F)F)CO1)[C@@H](c1ccc(F)cc1)c1cccc(Cl)c1 (stereo in doubt) [Example 93, (2S,3S)-2-Amino-3-(3-chlorophenyl)-3-(4-fluorophenyl)-N-(5-fluoro-4-(2-((2R,5R)-5-(2,2,2-trifluoroethylaminocarbonyloxymethyl)morpholine-2-yl)ethyl)pyridin-3-yl)propanamide] | 1.7 | 52 |
| COC(=O)N[C@H](C(=O)Nc1cncc(F)c1CC[C@@H]1CN[C@H](COC(=O)NCC(F)(F)F)CO1)[C@@H](c1ccc(F)cc1)c1ccc(F)c(F)c1 [Example 288] | 3.2 | 16 |
| O=C(C[C@H](c1ccc(F)cc1)c1cncc(F)c1)Nc1cccc(F)c1CC[C@@H]1CN[C@H](COC(=O)NCC(F)(F)F)CO1 [Example 161, {(3S,6R)-6-[2-(2-fluoro-6-{[(3R)-3-(4-fluorophenyl)-3-(5-fluoropyridin-3-yl)propanoyl]amino}phenyl)ethyl]morpholin-3-yl}methyl (2,2,2-trifluoroethyl)carbamate] | 12 | 70 |
| N[C@H](C(=O)Nc1cncc(F)c1CC[C@@H]1CN[C@H](COC(=O)NCC(F)(F)F)CO1)[C@H](c1ccc(F)cc1)c1ccc2ccccc2c1 [Example 96, (βR)-4-Fluoro-N-(5-fluoro-4-{2-[(2R,5S)-5-({[(2,2,2-trifluoroethyl)carbamoyl]oxy}methyl)morpholin-2-yl]ethyl}pyridin-3-yl)-β-naphthalen-2-yl-L-phenylalaninamide] | 9.9 | 73 |
| COC(=O)N[C@H](C(=O)Nc1cncc(F)c1CC[C@@H]1CN[C@H](COC(=O)NCC(F)(F)F)CO1)[C@H](c1ccc(F)cc1)c1ccc(C(F)(F)F)cc1 [Example 286] | 4.6 | 37 |
| N[C@H](C(=O)Nc1cncc(F)c1CC[C@@H]1CN[C@H](CO)CO1)[C@@H](c1ccccc1)c1ccnc2ccccc12 [Example 249, (βS)-N-(5-fluoro-4-{2-[(2R,5R)-5-(hydroxymethyl)morpholin-2-yl]ethyl}pyridin-3-yl)-β-quinolin-4-yl-L-phenylalaninamide] | 9.4 | 3000 |
| CC[C@@H](NC(=O)OC[C@@H]1CO[C@H](CCc2c(F)cncc2NC(=O)[C@@H](N)C(c2ccc(F)cc2)c2ccc(F)cc2)CN1)C(F)(F)F [Example 216] | 3.3 | 2000 |
| N[C@H](C(=O)Nc1cccc(F)c1CC[C@@H]1CN[C@H](COC(=O)NCC(F)(F)F)CO1)[C@@H](c1ccc(Cl)cc1)c1cccc(F)c1 [Example 274, (βS)-β-(4-chlorophenyl)-3-fluoro-N-(3-fluoro-2-{2-[(2R,5S)-5-({[(2,2,2-trifluoroethyl)carbamoyl]oxy}methyl)morpholin-2-yl]ethyl}phenyl)-L-phenylalaninamide] | 1.3 | 11 |
| N[C@H](C(=O)Nc1cncc(F)c1CC[C@@H]1CN[C@H](COC(=O)NCC2CNC(=O)O2)CO1)C(c1ccc(F)cc1)c1ccc(F)cc1 (stereo partly drawn) [Example 240, 4-fluoro-N-[5-fluoro-4-(2-{(2R,5S)-5-[({[(2-oxo-1,3-oxazolidin-5-yl)methyl]carbamoyl}oxy)methyl]morpholin-2-yl}ethyl)pyridin-3-yl]-β-(4-fluorophenyl)-L-phenylalaninamide] | 39 | 5000 |
| N[C@H](C(=O)Nc1cncc(F)c1CC[C@@H]1CN[C@H](COC(=O)NC[C@H]2CCCO2)CO1)C(c1ccc(F)cc1)c1ccc(F)cc1 [Example 215, 4-fluoro-β-(4-fluorophenyl)-N-[5-fluoro-4-(2-{(2R,5S)-5-[({[(2R)-tetrahydrofuran-2-ylmethyl]carbamoyl}oxy)methyl]morpholin-2-yl}ethyl)pyridin-3-yl]-L-phenylalaninamide] | 3.5 | 25 |
| COC(=O)N[C@H](C(=O)Nc1cncc(F)c1CC[C@@H]1CN[C@H](COC(=O)NCC(F)(F)F)CO1)[C@H](c1ccc(F)cc1)c1ccc(F)c(F)c1 [Example 297, (βR)-3,4-difluoro-β-(4-fluorophenyl)-N-(5-fluoro-4-{2-[(2R,5S)-5-({[(2,2,2-trifluoroethyl)carbamoyl]oxy}methyl)morpholin-2-yl]ethyl}pyridin-3-yl)-Nα-(methoxycarbonyl)-L-phenylalaninamide] | 1 | 15 |
| COC(=O)N[C@H](C(=O)Nc1cccc(F)c1CC[C@@H]1CN[C@H](COC(=O)NCC(F)(F)F)CO1)[C@@H](c1ccc(F)cc1)C1CCOCC1 [Example 130, (βR)-4-Fluoro-N-(3-fluoro-2-{2-[(2R,5S)-5-({[(2,2,2-trifluoroethyl)carbamoyl]oxy}methyl)morpholin-2-yl]ethyl}phenyl)-Nα-(methoxycarbonyl)-β-(tetrahydro-2H-pyran-4-yl)-L-phenylalaninamide] | 68 | 26 |
| C[C@H](NC(=O)OC[C@@H]1CO[C@H](CCc2c(F)cccc2NC(=O)[C@@H](N)C(c2ccc(F)cc2)c2ccc(F)cc2)CN1)c1ccc(F)cc1 [Example 212, 4-fluoro-N-[3-fluoro-2-(2-{(2R,5S)-5-[({[(1S)-1-(4-fluorophenyl)ethyl]carbamoyl}oxy)methyl]morpholin-2-yl}ethyl)phenyl]-β-(4-fluorophenyl)-L-phenylalaninamide] | 11 | 810 |
| N[C@H](C(=O)Nc1cncc(F)c1CC[C@@H]1CN[C@H](COC(=O)NCC(F)(F)F)CO1)[C@H](c1ccc(F)cc1)c1ccc(C(F)(F)F)cc1 [Example 264, (βS)-β-(4-fluorophenyl)-N-(5-fluoro-4-{2-[(2R,5S)-5-({[(2,2,2-trifluoroethyl)carbamoyl]oxy}methyl)morpholin-2-yl]ethyl}pyridin-3-yl)-4-(trifluoromethyl)-L-phenylalaninamide] | 3.6 | 77 |
| Cc1cc(C)n(CCNC(=O)OC[C@@H]2CO[C@H](CCc3c(F)cncc3NC(=O)CC(c3ccc(F)cc3)c3ccc(F)cc3)CN2)n1 [Example 172, {(3S,6R)-6-[2-(3-{[3,3-bis(4-fluoro-phenyl)propanoyl]amino}-5-fluoropyridin-4-yl)ethyl]morpholin-3-yl}methyl [2-(3,5-dimethyl-1H-pyrazol-1-yl)ethyl]carbamate] |  | 60 |
| N[C@H](C(=O)Nc1cncc(F)c1CC[C@@H]1CN[C@H](COC(=O)NCC(F)(F)F)CO1)[C@H](c1ccc(F)cc1)c1ccc(-c2cccnc2)cc1 [Example 224, (βS)-β-(4-fluorophenyl)-N-(5-fluoro-4-{2-[(2R,5S)-5-({[(2,2,2-trifluoro-ethyl)carbamoyl]oxy}methyl)morpholin-2-yl]ethyl}pyridin-3-yl)-4-pyridin-3-yl-L-phenylalaninamide] |  | 260 |
